One block for each compound: values may come before it.
Legend:
[1] = tested on: Liver microsome; test: Drug level in phenotyped human liver microsomes treated with Lu AA21004 at 8 to 50 uM after 60 mins by HPLC/MS-MS analysis in presence of NADPH regenerating system with NADP+; type: ADME; settings: 1 h
[2] = target: Cytochrome P450 2C19 (Homo sapiens, UniProt P33261); test: Activity of human recombinant CYP2C19 expressed in microsomes isolated from human AHH-1 cells assessed as enzyme-mediated compound formation treated with Lu AA21004 at 8 to 50 uM after 120 mins by HPLC/MS-MS analysis in presence of NADPH regenerating system with NADP+; type: ADME, cell-free; settings: 2 h
[3] = tested on: Liver microsome; test: Drug level in pooled human liver microsomes treated with Lu AA21004 at 100 uM after 30 to 180 mins by HPLC/MS-MS analysis in presence of NADPH regenerating system with NADP+; type: ADME
[4] = target: Cytochrome P450 2C9 (Homo sapiens, UniProt P11712); test: Activity of human recombinant CYP2C9 expressed in microsomes isolated from human AHH-1 cells assessed as enzyme-mediated compound formation treated with Lu AA21004 at 8 to 50 uM after 120 mins by HPLC/MS-MS analysis in presence of NADPH regenerating system with NADP+; type: ADME, cell-free; settings: 2 h
[5] = target: T1, Cytochrome P450 2B6 (Homo sapiens, UniProt P20813); test: Activity of human recombinant CYP2B6 expressed in microsomes isolated from human AHH-1 cells assessed as enzyme-mediated compound formation treated with Lu AA21004 at 8 to 50 uM after 120 mins by HPLC/MS-MS analysis in presence of NADPH regenerating system with NADP+; type: ADME, cell-free; settings: 2 h
T1 sequence (P20813 whole entry): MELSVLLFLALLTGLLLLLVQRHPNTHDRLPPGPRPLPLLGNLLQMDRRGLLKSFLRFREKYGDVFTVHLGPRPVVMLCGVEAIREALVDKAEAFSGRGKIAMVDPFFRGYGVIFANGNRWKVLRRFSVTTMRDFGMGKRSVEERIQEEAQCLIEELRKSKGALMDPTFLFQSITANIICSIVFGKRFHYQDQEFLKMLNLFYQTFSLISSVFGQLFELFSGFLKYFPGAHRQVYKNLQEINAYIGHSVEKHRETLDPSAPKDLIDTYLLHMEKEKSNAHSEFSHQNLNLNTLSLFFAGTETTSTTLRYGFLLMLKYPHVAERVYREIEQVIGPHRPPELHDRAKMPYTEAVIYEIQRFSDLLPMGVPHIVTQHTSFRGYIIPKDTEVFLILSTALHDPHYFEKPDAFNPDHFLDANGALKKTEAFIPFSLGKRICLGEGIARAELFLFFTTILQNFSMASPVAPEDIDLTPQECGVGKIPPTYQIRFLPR

[6] = target: T2, Cytochrome P450 2D6 (Homo sapiens, UniProt P10635); test: (§1) Activity of human recombinant CYP2D6 expressed in microsomes isolated from human AHH-1 cells assessed as enzyme-mediated compound formation treated with Lu AA21004 at 8 to 50 uM after 120 mins by HPLC/MS-MS analysis in presence of NADPH regenerating system with NADP+; type: ADME, cell-free; settings: 2 h
[7] = tested on: Liver; test: Drug level in human liver S9 fractions treated with (3-methyl-4-(2-(piperazin-1-yl)phenylthio)phenyl)methanol at 8 to 50 uM after 20 mins by HPLC/MS-MS analysis in absence of NADPH regenerating system with NAD+; type: ADME, tissue-based; settings: s9, 20 min
[8] = tested on: Liver microsome; test: Drug level in human liver microsomes treated with (3-methyl-4-(2-(piperazin-1-yl)phenylthio)phenyl)methanol at 50 uM after 20 mins by HPLC/MS-MS analysis in absence of NADPH regenerating system with NADP+; type: ADME
[9] = Drug level in pooled human liver S9 fractions treated with (3-methyl-4-(2-(piperazin-1-yl)phenylthio)phenyl)methanol at 2 to 50 uM after 20 mins by HPLC/MS-MS analysis in presence of NADPH regenerating system with NAD+ and xanthine oxidase inhibitor allopurinol; type: ADME, subcellular, Liver S9 fraction; settings: s9, 20 min
[10] = Drug level in human liver S9 fractions treated with (3-methyl-4-(2-(piperazin-1-yl)phenylthio)phenyl)methanol at 8 to 50 uM after 20 mins by HPLC/MS-MS analysis in presence of NADPH regenerating system with NAD+; type: ADME, subcellular, Liver S9 fraction; settings: s9, 20 min
[11] = tested on: Liver microsome; test: Drug level in human liver microsomes treated with (3-methyl-4-(2-(piperazin-1-yl)phenylthio)phenyl)methanol at 50 uM after 20 mins by HPLC/MS-MS analysis in presence of NADPH regenerating system with NADP+; type: ADME
[12] = tested on: Liver microsome; test: Drug level in phenotyped human liver microsomes treated with (3-methyl-4-(2-(piperazin-1-yl)phenylthio)phenyl)methanol at 8 to 50 uM after 15 mins by HPLC/MS-MS analysis in presence of NADPH regenerating system with NADP+; type: ADME; settings: 0.25 h
[13] = target: T2, Cytochrome P450 2D6; test: as §1, with “(3-methyl-4-(2-(piperazin-1-yl)phenylthio)phenyl)methanol” for “Lu AA21004”; type: ADME, cell-free; settings: 2 h
[14] = tested on: Liver microsome; test: Intrinsic clearance in pooled human liver microsomes assessed as Vmax(app)/Km(app) for formation of 3-methyl-4-(2-(piperazin-1-yl)phenylthio)benzoic acid per mg of protein after 20 mins by Michaelis-Menten plot analysis in presence of NADPH regenerating system with NADP+; type: ADME
[15] = tested on: Liver microsome; test: Drug metabolism in pooled human liver microsomes assessed as formation of 3-methyl-4-(2-(piperazin-1-yl)phenylthio)benzoic acid per mg of protein after 20 mins by Michaelis-Menten plot analysis in presence of NADPH regenerating system with NADP+; type: ADME
[16] = Drug metabolism in pooled human liver S9 fractions assessed as formation of 3-methyl-4-(2-(piperazin-1-yl)phenylthio)benzoic acid at 2 to 50 uM after 20 mins by HPLC/MS-MS analysis in presence of NADPH regenerating system with NAD+, aldehyde dehydrogenase inhibitor disulfiram, aldehyde oxidase inhibitor raloxifene and alcohol dehydrogenase inhibitor 4-methylpyrazole; type: ADME, subcellular, Liver S9 fraction; settings: s9, 20 min
[17] = Drug metabolism in pooled human liver S9 fractions assessed as formation of 3-methyl-4-(2-(piperazin-1-yl)phenylthio)benzoic acid after 20 mins by Michaelis-Menten plot analysis in presence of NADPH regenerating system with NADP+; type: ADME, subcellular, Liver S9 fraction; settings: s9, 20 min, read-out: Km(app)
[18] = Drug metabolism in human liver S9 fractions assessed as formation of 3-methyl-4-(2-(piperazin-1-yl)phenylthio)benzoic acid at 8 to 50 uM after 20 mins by HPLC/MS-MS analysis in presence of NADPH regenerating system with NAD+; type: ADME, subcellular, Liver S9 fraction; settings: s9, 20 min
[19] = Drug metabolism in pooled human liver S9 fractions assessed as formation of 3-methyl-4-(2-(piperazin-1-yl)phenylthio)benzoic acid at 2 to 50 uM after 20 mins by HPLC/MS-MS analysis in presence of NADPH regenerating system with NAD+ and xanthine oxidase inhibitor allopurinol; type: ADME, subcellular, Liver S9 fraction; settings: s9, 20 min
[20] = tested on: Liver microsome; test: Drug metabolism in human liver microsomes assessed as formation of 3-methyl-4-(2-(piperazin-1-yl)phenylthio)benzoic acid at 50 uM after 20 mins by HPLC/MS-MS analysis in absence of NADPH regenerating system with NADP+; type: ADME
[21] = target: Liver microsome; test: Uncompetitive substrate inhibition in pooled human liver microsomes assessed as formation of 3-methyl-4-(2-(piperazin-1-yl)phenylthio)benzoic acid after 20 mins by Michaelis-Menten plot analysis in presence of NADPH regenerating system with NADP+; type: ADME
[22] = tested on: Liver microsome; test: Drug metabolism in human liver microsomes assessed as formation of 3-methyl-4-(2-(piperazin-1-yl)phenylthio)benzoic acid at 50 uM after 20 mins by HPLC/MS-MS analysis in presence of NADPH regenerating system with NADP+; type: ADME
[23] = Drug metabolism in human liver S9 fractions assessed as formation of 3-methyl-4-(2-(piperazin-1-yl)phenylthio)benzoic acid at 8 to 50 uM after 20 mins by HPLC/MS-MS analysis in absence of NADPH regenerating system with NAD+; type: ADME, tissue-based; settings: s9, 20 min
[24] = tested on: Liver microsome; test: Drug metabolism in pooled human liver microsomes assessed as formation of 3-methyl-4-(2-(piperazin-1-yl)phenylthio)benzoic acid after 20 mins by Michaelis-Menten plot analysis in presence of NADPH regenerating system with NADP+; type: ADME; settings: read-out: Km(app)
[25] = tested on: Liver microsome; test: Drug metabolism in phenotyped human liver microsomes assessed as formation of 3-methyl-4-(2-(piperazin-1-yl)phenylthio)benzoic acid at 8 to 50 uM after 15 mins by HPLC/MS-MS analysis in presence of NADPH regenerating system with NADP+; type: ADME; settings: 0.25 h
[26] = Drug metabolism in pooled human liver S9 fractions assessed as formation of 3-methyl-4-(2-(piperazin-1-yl)phenylthio)benzoic acid per mg of protein after 20 mins by Michaelis-Menten plot analysis in presence of NADPH regenerating system with NADP+; type: ADME, subcellular, Liver S9 fraction; settings: s9, 20 min
[27] = Intrinsic clearance in pooled human liver S9 fractions assessed as Vmax(app)/Km(app) for formation of 3-methyl-4-(2-(piperazin-1-yl)phenylthio)benzoic acid per mg of protein after 20 mins by Michaelis-Menten plot analysis in presence of NADPH regenerating system with NADP+; type: ADME, subcellular, Liver S9 fraction; settings: s9, 20 min
[28] = target: T3, Cytochrome P450 2C8 (Homo sapiens, UniProt P10632); test: Activity of human recombinant CYP2C8 expressed in microsomes isolated from human AHH-1 cells assessed as enzyme-mediated compound formation treated with Lu AA21004 at 8 to 50 uM after 120 mins by HPLC/MS-MS analysis in presence of NADPH regenerating system with NADP+; type: ADME, cell-free; settings: 2 h
T3 sequence (P10632 whole entry): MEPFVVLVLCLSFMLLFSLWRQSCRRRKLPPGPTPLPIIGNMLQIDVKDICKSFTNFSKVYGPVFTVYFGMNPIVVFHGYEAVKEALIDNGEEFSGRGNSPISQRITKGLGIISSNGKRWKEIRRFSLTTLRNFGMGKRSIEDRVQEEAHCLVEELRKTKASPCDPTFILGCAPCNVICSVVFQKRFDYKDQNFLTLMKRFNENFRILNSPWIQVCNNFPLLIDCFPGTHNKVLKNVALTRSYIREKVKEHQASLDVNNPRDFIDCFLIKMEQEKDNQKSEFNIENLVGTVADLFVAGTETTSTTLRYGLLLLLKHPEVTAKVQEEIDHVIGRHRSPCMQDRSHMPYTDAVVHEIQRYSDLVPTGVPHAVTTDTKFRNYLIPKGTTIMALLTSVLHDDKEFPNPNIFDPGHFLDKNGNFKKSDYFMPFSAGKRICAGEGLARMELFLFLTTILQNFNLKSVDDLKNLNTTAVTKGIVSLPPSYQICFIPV

[29] = target: Cytochrome P450 3A4 (Homo sapiens, UniProt P08684); test: Activity of human recombinant CYP3A4 expressed in microsomes isolated from human AHH-1 cells assessed as enzyme-mediated compound formation treated with Lu AA21004 at 8 to 50 uM after 120 mins by HPLC/MS-MS analysis in presence of NADPH regenerating system with NADP+; type: ADME, cell-free; settings: 2 h
[30] = target: T4, Cytochrome P450 2A6 (Homo sapiens, UniProt P11509); test: Activity of human recombinant CYP2A6 expressed in microsomes isolated from human AHH-1 cells assessed as enzyme-mediated compound formation treated with Lu AA21004 at 8 to 50 uM after 120 mins by HPLC/MS-MS analysis in presence of NADPH regenerating system with NADP+; type: ADME, cell-free; settings: 2 h
T4 sequence (P11509 whole entry): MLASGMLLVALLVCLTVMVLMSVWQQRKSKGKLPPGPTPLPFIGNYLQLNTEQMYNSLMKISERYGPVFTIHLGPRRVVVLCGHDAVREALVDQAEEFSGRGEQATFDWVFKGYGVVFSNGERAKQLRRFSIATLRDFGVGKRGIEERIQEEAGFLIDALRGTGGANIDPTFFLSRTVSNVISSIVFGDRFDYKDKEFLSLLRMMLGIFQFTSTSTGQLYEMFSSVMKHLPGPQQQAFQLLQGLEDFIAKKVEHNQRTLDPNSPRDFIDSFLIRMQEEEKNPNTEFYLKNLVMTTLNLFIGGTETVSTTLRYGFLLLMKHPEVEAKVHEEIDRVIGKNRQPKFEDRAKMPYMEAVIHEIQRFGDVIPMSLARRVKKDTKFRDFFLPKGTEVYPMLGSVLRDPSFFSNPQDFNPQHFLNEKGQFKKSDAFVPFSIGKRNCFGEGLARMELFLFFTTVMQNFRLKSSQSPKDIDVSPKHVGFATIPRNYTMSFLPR

T2 sequence (P10635 whole entry): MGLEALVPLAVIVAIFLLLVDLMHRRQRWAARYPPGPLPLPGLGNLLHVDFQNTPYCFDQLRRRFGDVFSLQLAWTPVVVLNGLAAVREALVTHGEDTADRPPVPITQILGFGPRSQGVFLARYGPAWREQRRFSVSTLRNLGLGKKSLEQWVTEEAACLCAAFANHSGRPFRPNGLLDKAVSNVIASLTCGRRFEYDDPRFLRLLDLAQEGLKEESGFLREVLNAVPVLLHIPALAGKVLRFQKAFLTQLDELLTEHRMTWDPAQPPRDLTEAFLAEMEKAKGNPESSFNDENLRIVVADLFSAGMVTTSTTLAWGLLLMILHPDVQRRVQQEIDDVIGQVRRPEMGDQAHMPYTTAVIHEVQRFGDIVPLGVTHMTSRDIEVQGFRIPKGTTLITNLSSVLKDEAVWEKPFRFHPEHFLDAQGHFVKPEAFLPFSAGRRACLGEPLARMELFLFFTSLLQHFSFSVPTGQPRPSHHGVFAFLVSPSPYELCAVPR
Cytochrome P450 2C19, sequence (P33261 whole entry): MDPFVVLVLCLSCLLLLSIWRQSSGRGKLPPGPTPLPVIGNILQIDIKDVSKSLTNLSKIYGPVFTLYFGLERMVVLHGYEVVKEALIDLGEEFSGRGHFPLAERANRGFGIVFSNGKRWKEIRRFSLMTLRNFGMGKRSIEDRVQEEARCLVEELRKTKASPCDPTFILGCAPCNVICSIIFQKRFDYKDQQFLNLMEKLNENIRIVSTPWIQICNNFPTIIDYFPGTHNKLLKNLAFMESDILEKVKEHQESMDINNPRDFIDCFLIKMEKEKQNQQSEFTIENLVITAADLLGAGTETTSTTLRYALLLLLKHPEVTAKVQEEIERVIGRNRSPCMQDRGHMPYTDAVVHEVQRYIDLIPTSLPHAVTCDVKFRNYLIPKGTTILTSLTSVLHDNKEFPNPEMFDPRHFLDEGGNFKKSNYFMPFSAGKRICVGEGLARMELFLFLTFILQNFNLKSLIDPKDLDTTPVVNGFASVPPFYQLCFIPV
Cytochrome P450 2C9, sequence (P11712 whole entry): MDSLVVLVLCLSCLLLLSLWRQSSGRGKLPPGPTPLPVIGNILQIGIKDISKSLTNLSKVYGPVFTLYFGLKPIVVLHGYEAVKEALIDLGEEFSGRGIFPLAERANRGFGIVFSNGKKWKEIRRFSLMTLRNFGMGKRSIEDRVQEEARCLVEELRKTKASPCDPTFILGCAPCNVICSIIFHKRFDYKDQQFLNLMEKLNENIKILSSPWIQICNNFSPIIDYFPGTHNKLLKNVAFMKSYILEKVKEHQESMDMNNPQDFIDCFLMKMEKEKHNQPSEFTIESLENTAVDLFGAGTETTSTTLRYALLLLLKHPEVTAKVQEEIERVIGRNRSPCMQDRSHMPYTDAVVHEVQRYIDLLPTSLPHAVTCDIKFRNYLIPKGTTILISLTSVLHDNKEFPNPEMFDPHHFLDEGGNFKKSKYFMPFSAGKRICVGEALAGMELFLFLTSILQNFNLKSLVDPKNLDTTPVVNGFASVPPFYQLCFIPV
Cytochrome P450 3A4, sequence (P08684 whole entry): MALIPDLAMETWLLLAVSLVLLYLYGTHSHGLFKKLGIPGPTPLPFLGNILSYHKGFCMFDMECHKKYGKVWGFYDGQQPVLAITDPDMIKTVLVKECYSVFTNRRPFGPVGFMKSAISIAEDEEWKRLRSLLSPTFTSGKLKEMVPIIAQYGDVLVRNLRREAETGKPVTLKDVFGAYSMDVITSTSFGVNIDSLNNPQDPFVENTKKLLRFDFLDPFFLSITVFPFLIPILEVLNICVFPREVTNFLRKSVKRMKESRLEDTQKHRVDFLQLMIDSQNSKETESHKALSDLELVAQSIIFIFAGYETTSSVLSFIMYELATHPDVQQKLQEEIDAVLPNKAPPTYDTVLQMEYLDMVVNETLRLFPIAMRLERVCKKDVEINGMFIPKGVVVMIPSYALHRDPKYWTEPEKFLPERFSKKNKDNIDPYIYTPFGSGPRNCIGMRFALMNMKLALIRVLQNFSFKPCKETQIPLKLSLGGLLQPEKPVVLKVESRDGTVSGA

Drug metabolism [1]: metabolite_detected | Drug metabolism [2]: metabolite_detected | Drug metabolism [3]: metabolite_detected | Drug metabolism [4]: metabolite_detected | Drug metabolism [5]: metabolite_detected
SMILES: Cc1ccc(Sc2ccccc2N2CCN(O)CC2)c(C)c1

Drug metabolism [1]: metabolite_detected | Drug metabolism [3]: metabolite_detected | Drug metabolism [6]: metabolite_detected | Drug metabolism [7]: metabolite_detected | Drug metabolism [8]: metabolite_detected | Drug metabolism [9]: metabolite_detected | Drug metabolism [10]: metabolite_detected | Drug metabolism [11]: metabolite_detected | Drug metabolism [12]: metabolite_detected | Drug metabolism [13]: metabolite_detected
SMILES: Cc1cc(C(=O)O)ccc1Sc1ccccc1N1CCNCC1

SMILES: Cc1ccc(Sc2cc([O-])ccc2N2CCNCC2)c(C)c1.[Na+]
Drug metabolism [1]: metabolite_detected | Drug metabolism [2]: metabolite_detected | Drug metabolism [3]: metabolite_detected | Drug metabolism [4]: metabolite_detected | Drug metabolism [6]: metabolite_detected

Vmax/Km [14]: 0.621 µL/min | Drug metabolism [1]: metabolite_detected | Drug metabolism [2]: metabolite_detected | Vmax(app) [15]: 59 pmol/min | Drug metabolism [16]: metabolite_not_detected | Km [17]: 1.7 µM | Drug metabolism [3]: metabolite_detected | Drug metabolism [4]: metabolite_detected | Drug metabolism [6]: metabolite_detected | Drug metabolism [18]: metabolite_detected | Drug metabolism [19]: metabolite_detected | Drug metabolism [20]: metabolite_detected | Ki [21]: 275 µM | Drug metabolism [22]: metabolite_detected | Drug metabolism [23]: metabolite_detected | Km [24]: 95 µM | Drug metabolism [25]: metabolite_detected | Vmax(app) [26]: 1567 pmol/min | Vmax/Km [27]: 922 µL/min
SMILES: Cc1cc(CO)ccc1Sc1ccccc1N1CCNCC1

Drug metabolism [1]: metabolite_detected | Drug metabolism [28]: metabolite_detected | Drug metabolism [3]: metabolite_detected | Drug metabolism [29]: metabolite_detected | Drug metabolism [30]: metabolite_detected
SMILES: Cc1ccc([S+]([O-])c2ccccc2N2CCNCC2)c(C)c1.O=C(O)/C=C/C(=O)O (centres undefined)

Source: ChEMBL document CHEMBL3525899, “Identification of the cytochrome P450 and other enzymes involved in the in vitro oxidative metabolism of a novel antidepressant, Lu AA21004” (Drug Metab Dispos, 2012)
